Measured values reported in patent publication US10787413B2, “Derivatives of curcuminoids and use thereof as an anticancer agent” (CHINA MEDICAL UNIVERSITY, priority 2016, dated 2020).
Like-named read-outs stand apart in the source and are kept apart here.

Columns and labels:
[1] = tested on: MDA-MB-231 breast cancer cell; experiment: MTT cell viability assay, MDA-MB-231 breast cancer cell; type: cell-based, human; settings: for IC50: Homo sapiens; for times more potent than curcumin (IC50): MDA-MB-231, 72 h treatment, curcumin IC50 16.23 μM
Experimental: (§1) Cell viability was evaluated by measuring the reduction in MTT to yield blue formazan. Cells were cultured in 96-well plates, allowed to attach overnight, and then treated with compounds. After treatment, MTT solution (1 mg/ml) was added to each well, and plates were incubated for another 4 h.

[2] = tested on: HCT-116 colon cancer cell; experiment: MTT cell viability assay, HCT-116 colon cancer cell; type: cell-based; settings: Homo sapiens
Experimental: as §1, with “h. Medium were removed, blue formazan was dissolved in DMSO, and the absorbance was read at 570 nm^20.” for “h.”

PC3 prostate cancer cell = experiment: MTT cell viability assay, PC3 prostate cancer cell; type: cell-based
Experimental: as §1, with “h. Medium were removed, blue formazan was dissolved in DMSO, and the absorbance was read at 570 nm^20.” for “h.”

[3] = tested on: Doxorubicin-resistant MDA-MB-231; experiment: Cell viability, Doxorubicin-resistant MDA-MB-231; type: cell-based
Experimental: as §1, with “h. Medium were removed, blue formazan was dissolved in DMSO, and the absorbance was read at 570 nm^20.” for “h.”

[4] = Preliminary acute toxicity assay; settings: oral 500 mg/kg/day for 5 consecutive days, 21 days observation, vs untreated control
Experimental: Normal mice were treated with 21a or 35a by oral route at 500 mg/kg/day for 5 consecutive days, following by 21 days of post-treatment observation. […] Detailed data for their toxicology and safety pharmacology studies will be carried out in the near future.
Female nu/nu mice (5 weeks old) were P.O. with vehicle (propylene glycol, 0.1 ml) or high dose of 21a (250 and 500 mg/kg) and 35a (500 mg/kg) for 5 days followed by observation of behavior and lethargy for 21 days.

MDA-MB-231 Xenograft = settings: Doxorubicin alone, IP 1 mg/kg/day
Experimental: Female nu/nu mice (5 weeks old) were from National Laboratory Animal Center, Taipei, Taiwan. […] MDA-MB-231 breast cancer cells (5×10^6 cells per mouse) were suspended in 0.1 ml of Matrigel solution (50% (v/v) Matrigel in PBS) and inoculated into the mammary fat pads of the mice. […] Compounds was administered P.O. once every day for 32 days. Tumor size and mouse body weight were measured once every 4 days, and tumor volume (mm3) was calculated using the equation: length×(width)^2×0.5. At the end of experiments, mice were sacrificed and tumor nodules were dissected and weighed.

[5] = MDA-MB-231, 24 h, MDA-MB-231, treated 24 hours, read-out: IC50 24 hours
[6] = MDA-MB-231, 72 h, MDA-MB-231, treated 72 hours, read-out: IC50 72 hours
[7] = HCT-116, treated 24 hours, read-out: IC50 24 hours
[8] = HCT-116, treated 48 hours, read-out: IC50 48 hours
[9] = HCT-116, treated 72 hours, read-out: IC50 72 hours
[10] = PC-3, treated 24 hours, read-out: IC50 24 hours
[11] = PC-3, treated 72 hours, read-out: IC50 72 hours
[12] = MDA-MB-231, 48 h, MDA-MB-231, treated 48 hours, read-out: IC50 48 hours
[13] = PC-3, treated 48 hours, read-out: IC50 48 hours

IC50 [1, 5] [µM] | IC50 [1, 6] [µM] | times more potent than curcumin (IC50) [1] | IC50 [2, 7] [µM] | IC50 [2, 8] [µM] | IC50 [2, 9] [µM] | IC50 (PC3 prostate cancer cell; [10]) [µM] | IC50 (PC3 prostate cancer cell; [11]) [µM] | IC50 [1, 12] [µM] | IC50 (PC3 prostate cancer cell; [13]) [µM] | melting point [°C] | Structure (SMILES) | times greater inhibitory activity than curcumin ([3]; Doxorubicin-resistant MDA-MB-231) [times] | IC50 ([3]; Homo sapiens, MDA-MB-231, 24 h, Doxorubicin-resistant MDA-MB-231, treated for 24 h) [µM] | body weight and behavior change [4] | reduction of MDA-MB-231 tumor weight compared with control group (MDA-MB-231 Xenograft) [%]
19.5 ± 1.82 | 1.33 | about 12 times | 71.9 ± 7.87 | 11.3 ± 0.72 | 4.78 ± 0.66 | 20.1 ± 2.62 | 5.22 ± 0.27 | 5.27 ± 0.57 | 11 ± 0.44 | 206 to 208 | CC(CO)(CO)C(=O)Oc1ccc(/C=C/C(=O)/C=C(O)/C=C/c2ccc(O)cc2)cc1 [Compound 23b, 4-((1E,4Z,6E)-5-hydroxy-7-(4-hydroxyphenyl)-3-oxohept-1,4,6-trien-1-yl)phenyl 3-hydroxy-2-(hydroxymethyl)-2-methylpropanoate] |  |  |  | 
13.2 ± 1.2 | 5.94 |  | 35.6 ± 2.5 | 20.4 ± 0.61 | 15.5 ± 0.16 | 24.6 ± 0.83 | 17.4 ± 1.37 | 9.97 ± 1.12 | 26.8 ± 0.74 | 104 to 105 | COc1cc(/C=C/C(O)=C/C(=O)/C=C/c2ccc(OC(=O)C(C)(CO)CO)c(OC)c2)ccc1O [Compound 21b, 4-((1E,4Z,6E)-5-Hydroxy-7-(4-hydroxy-3-methoxyphenyl)-3-oxohepta-1,4,6-trien-1-yl)-2 methoxyphenyl 3-hydroxy-2-(hydroxymethyl)-2-methylpropanoate] |  |  |  | 
9.02 ± 0.5 | 0.71 |  | 2.18 ± 0.22 |  | 0.71 ± 0.01 | 4.24 ± 0.18 | 2.63 ± 0.77 |  | 3.54 ± 0.26 | 195 to 197 | C=CCC(CC=C)(C(=O)/C=C/c1ccc(OC(=O)C(C)(CO)CO)c(OC)c1)C(=O)/C=C/c1ccc(OC(=O)C(C)(CO)CO)c(OC)c1 [Compound 35e, ((1E,6E)-4,4-diallyl-3,5-dioxohepta-1,6-diene-1,7-diyl)bis(2-methoxy-4,1-phenylene) bis(3-hydroxy-2-(hydroxymethyl)-2-methylpropanoate)] |  |  |  | 
7.69 ± 0.82 | 2.29 |  | 7.57 ± 1.02 | 3.84 ± 0.41 | 1.95 ± 0.15 | 8.37 ± 0.81 | 2.32 ± 0.05 | 1.99 ± 0.99 | 3.75 ± 0.18 | 184 to 186 | COc1ccc(/C=C/C(=O)CC(=O)/C=C/c2ccc(OC)c(OC(=O)C(C)(CO)CO)c2)cc1O [Compound 24b, 5-((1E,6E)-7-(3-Hydroxy-4-methoxyphenyl)-3,5-dioxohepta-1,6-dien-1-yl)-2-methoxyphenyl 3-hydroxy-2-(hydroxymethyl)-2-methylpropanoate] |  |  |  | 
8.64 ± 0.27 | 2 ± 0.02 |  | 7.71 ± 0.03 |  | 1.74 ± 0.02 | 8.7 ± 0.14 | 2.16 ± 0.12 |  | 3.67 ± 0.25 | 189 to 191 | CCC(CC)(C(=O)/C=C/c1ccc(OC(=O)C(C)(CO)CO)c(OC)c1)C(=O)/C=C/c1ccc(OC(=O)C(C)(CO)CO)c(OC)c1 [Compound 35b, ((1E,6E)-4,4-Diethyl-3,5-dioxohepta-1,6-diene-1,7-diyl)bis(2-methoxy-4,1-phenylene) bis(3-hydroxy-2-(hydroxymethyl)-2-methylpropanoate)] |  |  |  | 
26.7 ± 1.85 | 6.74 |  | 57.4 ± 12.2 | 8.64 ± 0.18 | 4.1 ± 0.06 | 8.46 ± 0.64 | 5.59 ± 0.2 | 7.82 ± 0.56 | 8.77 ± 0.8 | 192 to 194 | CC(CO)(CO)C(=O)Oc1ccc(/C=C/C(=O)/C=C(O)/C=C/c2ccc(OC(=O)C(C)(CO)CO)cc2)cc1 [Compound 23a, ((1E,3Z,6E)-3-Hydroxy-5-oxohepta-1,3,6-triene-1,7-diyl)bis(4,1-phenylene) bis(3-hydroxy-2-(hydroxymethyl)-2-methylpropanoate)] |  |  |  | 
14.6 ± 2.42 | 4.66 |  | 21.2 ± 2.48 | 12.4 ± 0.16 | 11.4 ± 1.05 | 13.8 ± 1.48 | 12.5 ± 0.1 | 7.55 ± 0.86 | 14.4 ± 0.82 | 82 to 83 | CCC(CO)(CO)C(=O)Oc1ccc(/C=C/C(=O)/C=C(O)/C=C/c2ccc(O)c(OC)c2)cc1OC [Compound 22b, 4-((1E,4Z,6E)-5-Hydroxy-7-(4-hydroxy-3-methoxyphenyl)-3-oxohepta-1,4,6-trien-1-yl)-2-methoxyphenyl 2,2-bis(hydroxymethyl)butanoate] |  |  |  | 
9.22 ± 2.24 | 4.61 | about 3.5 times | 11.4 ± 1.11 | 5.33 ± 0.29 | 2.79 ± 0.15 | 11.9 ± 1.4 | 4.74 ± 0.04 | 5.11 ± 0.96 | 6.43 ± 0.26 | 194 to 196 | COc1ccc(/C=C/C(=O)CC(=O)/C=C/c2ccc(OC)c(OC(=O)C(C)(CO)CO)c2)cc1OC(=O)C(C)(CO)CO [Compound 24a, ((1E,6E)-3,5-Dioxohepta-1,6-diene-1,7-diyl)bis(2-methoxy-5,1-phenylene) bis(3-hydroxy-2-(hydroxymethyl)-2-methylpropanoate)] |  |  |  | 

Further lines, the compound ahead of its results:

Structure (SMILES) | IC50 [1, 5] [µM] | IC50 [1, 6] [µM] | times more potent than curcumin (IC50) [1] | IC50 [2, 7] [µM] | IC50 [2, 8] [µM] | IC50 [2, 9] [µM] | IC50 (PC3 prostate cancer cell; [10]) [µM] | IC50 (PC3 prostate cancer cell; [11]) [µM] | IC50 [1, 12] [µM] | IC50 (PC3 prostate cancer cell; [13]) [µM] | melting point [°C] | times greater inhibitory activity than curcumin ([3]; Doxorubicin-resistant MDA-MB-231) [times] | IC50 ([3]; Homo sapiens, MDA-MB-231, 24 h, Doxorubicin-resistant MDA-MB-231, treated for 24 h) [µM] | body weight and behavior change [4] | reduction of MDA-MB-231 tumor weight compared with control group (MDA-MB-231 Xenograft) [%]
COc1cc(/C=C/C(=O)C(C)(C)C(=O)/C=C/c2ccc(OC(=O)C(C)(CO)CO)c(OC)c2)ccc1OC(=O)C(C)(CO)CO [Compound 35a, ((1E,6)-4,4-Dimethyl-3,5-dioxohept-1,6-diene-1,7-diyl)bis(2-methoxy-4,1-phenylene) bis(3-hydroxy-2-(hydroxymethyl)-2-methylpropanoate)] | 5.33 ± 0.69 | 1.98 | 8.2 times | 6.67 ± 0.43 | 3.35 ± 0.09 | 1.65 ± 0.16 | 3.49 ± 0.4 | 1.76 ± 0.14 |  |  |  | 10 | 5.7 | no significant difference | 
CCOc1cc(/C=C/C(=O)/C=C(O)/C=C/c2ccc(OC(=O)C(CC)(CO)CO)c(OCC)c2)ccc1OC(=O)C(CC)(CO)CO [Compound 27, ((1E,3Z,6E)-3-hydroxy-5-oxohepta-1,3,6-triene-1,7-diyl)bis(2-ethoxy-4,1-phenylene) bis(2,2-bis(hydroxymethyl)butanoate)] | 8.04 ± 0.17 | 5.49 ± 0.52 |  | 3.79 ± 0.03 | 3.18 ± 0.26 | 2.97 ± 0.13 | 8.18 ± 1.89 | 3.06 ± 0.29 | 7.43 ± 1.36 | 4.46 ± 0.15 | 161 to 162 |  |  |  | 
COc1cc(/C=C/C(=O)C(CO)(CO)C(=O)/C=C/c2ccc(OC(=O)C(C)(CO)CO)c(OC)c2)ccc1OC(=O)C(C)(CO)CO [Compound 40, ((1E,6E)-4,4-bis(hydroxymethyl)-3,5-dioxohepta-1,6-diene-1,7-diyl)bis(2-methoxy-4-phenylene) bis(3-hydroxy-2-(hydroxymethyl)-2-methylpropanoate)] | > 100 | 57.9 ± 2.73 |  | > 100 | 69.1 ± 3.11 | 58.04 ± 0.53 | > 100 | 74.6 ± 2.04 | 84.9 ± 1.67 | > 100 | 234 to 237 |  |  |  | 
COc1ccc(/C=C/C(O)=C/C(=O)/C=C/c2ccc(OC(=O)C(C)(CO)CO)c(OC)c2)cc1OC [Compound 33, 4-((1E,4Z,6E)-7-(3,4-dimethoxyphenyl)-5-hydroxy-3-oxohepta-1,4,6-triene-1-yl)-2-methoxyphenyl 3-hydroxy-2-(hydroxymethyl)-2-methylpropanoate] | 4.69 ± 0.73 | 2.55 |  | 10.5 ± 0.64 | 7.56 ± 0.77 | 4.77 ± 0.24 | 7.77 ± 0.88 | 7.64 ± 0.75 | 3.12 ± 0.17 | 7.85 ± 0.81 | 99 to 101 |  |  |  | 
CCOc1cc(/C=C/C(=O)/C=C(O)/C=C/c2ccc(OC(=O)C(C)(CO)CO)c(OCC)c2)ccc1OC(=O)C(C)(CO)CO [Compound 26, ((1E,3Z,6E)-3-hydroxy-5-oxohepta-1,3,6-triene-1,7-diyl)bis(2-ethoxy-4,1-phenylene) bis(3-hydroxy-2-(hydroxymethyl)-2-methylpropanoate)] | 18.43 ± 0.15 | 6.58 ± 0.81 |  | 8.33 ± 0.39 | 4.22 ± 0.05 | 3.79 ± 0.1 | 9.38 ± 0.01 | 5.36 ± 0.07 | 8.85 ± 0.66 | 9.53 ± 0.36 | 153 to 155 |  |  |  | 
COc1cccc2c1C(=O)c1c(O)c3c(c(O)c1C2=O)C[C@@](O)(C(=O)CO)C[C@@H]3O[C@H]1C[C@H](N)[C@H](O)[C@H](C)O1 [Doxorubicin, reference compound] |  |  |  |  |  |  |  |  |  |  |  |  |  |  | 60
